The source of these data is article PMC11197535, “Reprogramming of phytopathogen transcriptome by a non-bactericidal pesticide residue alleviates its virulence in rice” (Fundamental Research, 2022).

For this assay, the target named is T1, TroK (Burkholderia plantarii, UniProt A0A0B6RRK0).
T1 construct: gene BGL_1c34780
The experiment in a line: SPR (Biacore T200, multiple cycle kinetics). Type of assay: binding. The conditions noted are these: TroK immobilised on CM7 chip by amine coupling; 10 mM PBS, pH 7.4, 150 mM NaCl, DMSO; free ATT. The source says:
SPR (Biacore T200, multiple cycle kinetics) on TroK | thiazole could directly bind to the purified TroK in the transmembrane region

T1 sequence (A0A0B6RRK0 entry or part of it): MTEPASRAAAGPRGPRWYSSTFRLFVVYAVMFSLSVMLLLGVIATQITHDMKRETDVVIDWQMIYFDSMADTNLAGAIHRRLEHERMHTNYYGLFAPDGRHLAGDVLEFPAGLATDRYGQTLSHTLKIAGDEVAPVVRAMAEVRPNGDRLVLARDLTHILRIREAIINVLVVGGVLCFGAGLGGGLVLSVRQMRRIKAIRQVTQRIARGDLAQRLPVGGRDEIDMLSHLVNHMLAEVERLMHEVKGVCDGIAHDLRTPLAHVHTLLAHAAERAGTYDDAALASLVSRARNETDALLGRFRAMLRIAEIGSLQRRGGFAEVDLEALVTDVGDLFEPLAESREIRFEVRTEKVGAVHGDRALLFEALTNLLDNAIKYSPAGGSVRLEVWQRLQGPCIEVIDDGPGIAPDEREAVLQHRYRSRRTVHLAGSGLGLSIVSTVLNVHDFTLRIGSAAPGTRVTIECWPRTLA

`Nc1nnc(S)s1` [ATT, 5-Amino-1,3,4-thiadiazole-2-thiol] registered a Kd of 728 nM.
